From US20240239806A1, “COMPOUNDS, COMPOSITIONS AND METHODS OF TREATING DISORDERS” (Chengdu Anticancer Bioscience, Ltd., priority 2021, published 2024)
Read-outs that look alike come from different tables or passages of the source.

System: RPEMYC^H2B-GFP cells
Experiment: Phenotypic screening assay (mitotic arrest, polyploidy)
Format: cell-based
Settings: 1 nM to 30 μM; for IC50: read-out: Proliferative arrest (>50%)
Experimental: We have previously developed a mechanism-informed phenotypic screening assay to identify novel antimitotic agents. Equipped with a prior understanding of the versatile functions of the chromosomal passenger protein (CPP) complex in orchestrating karyokinesis and cytokinesis, the screening assay is to score for phenotypes typically seen when the CPP complex is disabled. Specifically, the parameters for a positive hit are a temporary elevation of mitotic index (MI) at 24 hours of drug treatment and an accumulation of polyploid cells at 48 hours of drug treatment, indicative of mitotic arrest and cytokinetic failure respectively. These parameters exclude compounds that elicit only a prolonged arrest of cells in mitosis, a phenotype typically provoked by spindle toxins. The screening procedure is briefly summarized here. RPEMYC^H2B-GFP cells engineered to express a Histone 2B-EGFP fusion protein were passaged as batches of 96-well plates, 18-24 hours before exposure to the chemical compounds of the present disclosure at concentrations from 1 nM to 30 μM. At 24, 48 or 72 hours after initiation of treatment, cells were analyzed for either an arrest in mitosis or a change in DNA content by GE IN-Cell Analyzer 2000. As set forth in Table 2 below, a value of greater than or equal to 1 nM and less than or equal to 1.0 μM is marked “A”; a value greater than 1.00 μM and less than or equal to 10.0 μM is marked “B”; a value greater than 10.0 μM and less than or equal to 30.0 μM is marked “C”; and a value greater than 30.0 μM is marked “D.”

[1] = read-out: Min. Effective conc. for Polyploidy (≥5%)

| Structure (SMILES) | minimal effective concentration [1] [µM] | minimal effective concentration (read-out: Mitotic Arrest (≥5%)) [µM] | IC50 [nM] |
| --- | --- | --- | --- |
| NC(=O)c1ccc2nccc(Oc3cc(Cl)cc(-n4cccn4)c3)c2c1 [Compound 2, 4-(3-chloro-5-(1H-pyrazol-1-yl)phenoxy)quinoline-6-carboxamide] | > 30 | > 30 | – |
| COc1cc(Oc2ccnc3ccccc23)cc(C(=O)O)c1 [Compound 9, 3-methoxy-5-(quinolin-4-yloxy) benzoic add] | > 30 | > 30 | > 30000 |
| CNC(=O)c1cc2c(Oc3cc(OC)cc(-n4cccn4)c3)ccnc2cc1OC [Compound 44, 7-Methoxy-4-(3-methoxy-5-(1H-pyrazol-1-yl)phenoxy)-N-methylquinoline-6-carboxamide] | 1 to 10 | 1 to 10 | 1000 to 10000 |
| COc1cc(Oc2ccnc3ccc(C(N)=O)cc23)cc(O[C@@H]2CCOC2)c1 [Compound 3, (R)-4-(methoxy-5-((tetrahydrofuran-3-yl)oxy)phenoxy)quinoline-6-carboxamide] | 0.001 to 1 | 0.001 to 1 | – |
| CNC(=O)c1ccc2nccc(Oc3cc(NC(C)=O)cc(OC)c3)c2c1 [Compound 53, 4-(3-Acetamido-5-methoxyphenoxy)-N-methylquinoline-6-carboxamide] | 0.001 to 1 | 0.001 to 1 | 1 to 1000 |
| COc1cc(Oc2ccnc3cc(OC)c(C(N)=O)cc23)cc(-n2nc(C)cc2C)c1 [Compound 86, 4-(3-(3,5-dimethyl-1H-pyrazol-1-yl)-5-methoxyphenoxy)-7-methoxyquinoline-6-carboxamide] | 1 to 10 | 1 to 10 | – |
| CCOc1cc(Oc2ccnc3ccc(C(N)=O)cc23)cc(-n2cccn2)c1 [Compound 65, 4-(3-Ethoxy-5-(MH-pyrazol-1-yl)phenoxy) quinoline-6-carboxamide] | 0.001 to 1 | 0.001 to 1 | 1 to 1000 |
| COc1cc(Oc2ccnc3cc(OC)c(OC)cc23)cc(-c2ncccn2)c1 [Compound 63, 6,7-Dimethoxy-4-(3-methoxy-5-(pyrimidin-2-yl)phenoxy) quinoline] | 0.001 to 1 | 0.001 to 1 | 1 to 1000 |
| COc1cc(OC)cc(Oc2ccnc3ccc(-c4ccco4)cc23)c1 [Compound 47, 4-(3,5-Dimethoxyphenoxy)-6-(furan-2-yl)quinoline] | 1 to 10 | 1 to 10 | 1000 to 10000 |
| CNC(=O)c1cc(OC)cc(Oc2ccnc3cc(OC)c(Br)cc23)c1 [Compound 90, 3-((6-bromo-7-methoxyquinolin-4-yl)oxy)-5-methoxy-N-methylbenzamide] | 1 to 10 | 1 to 10 | – |
| Cc1cc(Oc2ccnc3ccc(C(N)=O)cc23)cc(-n2cccn2)c1 [Compound 1, 4-(3-methyl-5-(1H-pyrazol-1-yl)phenoxy)quinoline-6-carboxamide] | 0.001 to 1 | 0.001 to 1 | – |
| [2H]c1cc(Oc2cc(OC)cc([N+](=O)[O-])c2)c2cc(Br)ccc2n1 [Compound 98] | 1 to 10 | 1 to 10 | – |
| COC(=O)c1ccc2nccc(Oc3cc(OC)cc(-n4cccn4)c3)c2c1 [Compound 46, Methyl 4-(3-methoxy-5-(1H-pyrazol-1-yl)phenoxy)quinoline-6-carboxylate] | 0.001 to 1 | 0.001 to 1 | 1 to 1000 |
| CNC(=O)c1cc(OC)cc(Oc2ccnc3ccc(C(F)(F)F)cc23)c1 [Compound 70, 3-Methoxy-N-methyl-5-((6-(trifluoromethyl)quinolin-4-yl)oxy) benzamide] | 1 to 10 | 1 to 10 | 1000 to 10000 |
| COc1cc(Oc2ccnc3ccc(C(N)=O)cc23)cc(-n2cccn2)c1 [Compound 61, 4-(3-Methoxy-5-(1H-pyrazol-1-yl)phenoxy) quinolin-6-carbazamide] | 0.001 to 1 | 0.001 to 1 | 1 to 1000 |
